Experimental findings from PMC8140105 (Scientific Reports, 2021) are described below.

Series [1] deals with BV-2 microglia cells. In words: ROS assay (fluorometric intracellular ROS kit). The conditions noted are these: BV-2 cells, 24 h treatment, fluorescence, n = 12. Format: cell-based, murine. Here is the method: Microglia activation is accompanied by an increased reactive oxygen species (ROS) production. The ROS assay was performed using a fluorometric intracellular ROS kit according to the supplier’s protocol (Sigma-Aldrich, Diegem, Belgium). In brief, 4 × 10^4 cells/well were seeded in a black 96-well plate. Four hours post seeding, 100 µL of master reaction mix was added to the wells and incubated for 1 h after which cells were treated with PapRIV dissolved in PBS for 24 h. Fluorescence intensity was measured using an EnVision fluorometric plate reader at λex = 492/λem = 535 nm (Perkin Elmer, Zaventem, Belgium).

For another series, the system named is BV-2 cells. In words: qPCR of IL-6 mRNA. Type of series: cell-based, murine. The conditions noted are these: 10 µM, n = 6, Mann–Whitney U test. How it is done:
To confirm the observed ELISA results at mRNA level, a qPCR experiment was performed. After incubation of the BV-2 cells with PapRIV or controls, cells were lysed in RLT buffer (Qiagen, Hilden, Germany) supplemented with 1% β-mercaptoethanol. The lysate was stored at − 80 °C until RNA extraction. RNA was extracted using the RNeasy Mini Kit (Qiagen, Hilden, Germany). DNAse steps were included in the protocol to remove possible DNA contamination. RNA purity and concentration were assessed using spectrophotometry (NanoDrop), while RNA quality was evaluated using capillary electrophoresis (Fragment Analyzer). After extraction, the RNA was immediately converted to cDNA which was stored at − 20 °C until qPCR analysis. Ppia and Rer were chosen as suitable control genes based on the GeNorm and Normfinder algorithms[79],[80]. Used primers are given in Table 5. qPCR cycling was performed using a LightCycler 480 (Roche), with Cq values being calculated using the second derivative threshold method.

The nature of series [2]: Multiple time regression (MTR) analysis, blood-to-brain influx. Type of series: in vivo, ICR-CD-1 mice. Here is the method:
(§1) Briefly, 0.1 µmol of the lyophilized peptide was dissolved in 100 µL of phosphate buffer (pH 7.4, 25 mM). A Iodo-Gen coated tube (Thermo Scientific, Merelbeke, Belgium) was first of all rinsed with 1 mL of phosphate buffer. Subsequently, 50 µL of sodium iodide solution (1.1 µmol/mL) and 1 mCi of Na^125I solution (Perking Elmer, Zaventem, Belgium) were transferred into this Iodo-Gen coated tube. The oxidation reaction was allowed to proceed for six minutes at room temperature, after which the iodonium solution was transferred to 50 µL of peptide solution (1 mM). The iodination reaction of the peptide was allowed to proceed for another six minutes at room temperature. Finally, the iodinated peptide was purified using a silver filter (Thermo Scientific, Merelbeke, Belgium).
In order to determine whether the peptide could enter the brain, in vivo multiple time regression (MTR) analysis was performed. ICR-CD-1 mice were anesthetized intraperitoneally using a 40% urethane solution (3 g/kg). […] At specified time points after injection (i.e. 1, 3, 5, 10, 12.5 and 15 min, with start and end in duplicate), blood was obtained from the carotid artery followed by decapitation of the mouse. The isolated brain was weighed and radioactivity measured in a gamma counter for 5 min (Wallac Wizard automatic gamma counter, Perkin Elmer, Shelton, CT, USA), as well as from 50 µL serum, which was obtained by centrifuging the collected blood at 10,000g for 15 min at 21 °C. The linear and biphasic modeling of the multiple time regression analysis was performed as previously described.

Series [3] concerns BV-2 microglia cells. In words: MTT viability of BV-2 microglia cells. Format: cell-based, murine.
A further series concerns Caco-2 monolayer. In words: Caco-2 assay (apparent permeability). Type of series: in vitro ADME. Here is the method: Caco-2 (Sigma-Aldrich, Diegem, Belgium) cells were grown in DMEM supplemented with 10% FBS, 1% NEAA and 1% penicillin/streptomycin solution. A total of 3 × 10^5 cells per filter were seeded in a 12-well plate and left for differentiation during 21–29 days (medium change every other day). Monolayer formation was checked by measuring the TEER values which should be above 0.30 kΩ × cm^2 [72]. After washing with Hank’s balanced salt solution, 400 µL of a 1 µM peptide solution was added to the apical side of the filter. After 30, 60, 90 and 120 min, 100 µL of the acceptor compartment was taken for UPLC-MS/MS analysis (Supplementary method S2). Linear curve fitting was used to calculate the apparent permeability coefficient (Papp), as sink conditions were achieved.
The reduction in acceptor concentration was also taken into account after every sampling. The cumulative amount in the acceptor compartment is defined as:2 Cumulativeamount=CrnVr+∑k=1n-1CrkVs with Crk = concentration at sample point k in acceptor compartment; Vr = volume in the receiver chamber; Vs = volume sampled; n = times sampled. […]
Supplementary method S2: UPLC-MS parameters Caco-2 assay
Aliquots of the acceptor compartment are analyzed using the following validated UPLC-
Column Acquity UPLC BEH C18 (2.1 × 100 mm, 1.7 µm) protected with a suitable guard
Sample temperature: 10°C.
A: 93/2/5 (v/v) H2O + ACN + DMSO + 0.1% FA
B: 2/93/5 (v/v) H2O + ACN + DMSO + 0.1% FA
Table 1: Quantifier of PapRIV.
Peptide Mother ion Daughter ion Collision energy MS
Injection volume: 10.0 µL
Table 2: Gradient program
Time (min) Mobile phase A (%) Mobile phase B (%)
For orientation: Caco-2 monolayers are a common model of the intestinal barrier.

A short description of series [4]: Brain-to-blood transport (efflux). Type of series: in vivo, ICR-CD-1 mice. The conditions noted are these: kout not significantly different from zero. Here is the method: as §1, with “Finally, the iodinated peptide was purified using a silver filter (Thermo Scientific, Merelbeke, Belgium).” left out
We quantified the amount of peptide exported out of the brain as previously described. […] Then, the whole brain was collected, weighed and measured in a gamma counter for 5 min. Fifty µL of serum, which was obtained by centrifuging the collected blood at 10,000g during 15 min at 21 °C, and the background was also measured in a gamma counter. The efflux half-life was calculated from the linear regression of the natural logarithm of the residual radioactivity in brain versus time as follows:3 t1/2=ln(2)/kout where kout is defined as the efflux rate constant calculated as the negative value of the slope of the linear regression, applying first order kinetics.

As to “SDLPFEH [PapRIV, heptapeptide (SDLPFEH) quorum sensing peptide originating from the Bacillus cereus group; synthetic, purchased from GL Biochem]”, the “intracellular ROS” value in the series with BV-2 microglia cells [1] is reported as “increase”. Moreover, in the series on BV-2 cells, the “IL-6 mRNA expression” value was “increased”. Moreover, the K1 in series [2] (125I-labelled, i.v. (jugular vein), mice, 1–15 min, biphasic model, mean ± standard error) was determined as 6.95 ± 6.25 µL/g/min. For the same substance, the “initial brain influx rate (Ki)” value in series [2] (125I-labelled, i.v., mice, biphasic model) is 6.95 µL/g/min. Further, in series [2] (125I-labelled, i.v., mice, biphasic model, mean ± standard error), the “Tissue brain distribution volume, Vg” value stood at 35.70 ± 61.73 µL/g. In addition, in series [2] (classification by influx rate), the “brain influx class according to the classification system of Stalmans et al.” value is listed as “very high brain influx”. The “viability of BV-2 microglia cells” value in the series on BV-2 microglia cells [3] (25 µM treatment, non-significant decrease) worked out at 94.8%. Further, the “toxic effects towards BV-2 microglia cells” value in the series on BV-2 microglia cells [3] (MTT, up to 25 µM) is “no significant toxic effects”. Further, the “Papp at 4 °C” value in the series on Caco-2 monolayer (Caco-2, 4 °C, compared with Papp at 37 °C, n = 6 (Supplementary Fig. S1)) is “comparable”. Besides, the Papp in the series with Caco-2 monolayer (Caco-2, apical to basolateral, 1 µM peptide (400 µL) after washing with Hank's balanced salt solution, cells differentiated 21–29 days, TEER above 0.30 kΩ × cm^2, acceptor sampled 30, 60, 90, 120 min, 37 °C, UPLC-MS/MS, linear fit, n = 6) was 1.37 ± 0.21 × 10^–9 cm/s. In addition, the “Papp in the opposite basolateral-apical direction” value with Caco-2 monolayer (Caco-2, basolateral to apical, compared with apical-basolateral Papp, n = 6 (Supplementary Fig. S1)) is reported as “comparable”. Further, the mass balance in the series with Caco-2 monolayer (Caco-2 assay, 1 µM, 120 min) is reported as under 2%. Besides, the “efflux from brain back to the circulation” value in series [4] is “no efflux”.
